Measured values reported in patent publication US6229055A, “Synthesis of fluorinated xanthene derivatives” (Molecular Probes, Inc., priority 2000, dated 2001).

Tests used:
[1] = Photodecomposition on illumination in fluorometer; format: physicochemical; conditions: % of decreased fluorescence intensity after 33 minutes of illumination in fluorometer at wavelength of maximum excitation
Experimental: *% of decreased fluorescence intensity after 33 minutes of illumination in
fluorometer at wavelength of maximum excitation

[2] = Spectral properties of selected fluorinated fluoresceins and rhodols; format: physicochemical; conditions: for Abs.: absorption maximum; for Em.: emission maximum; for ε × 10^-3: extinction coefficient, value is ε × 10^-3; for Quantum Yield: fluorescence quantum yield
[3] = pH titration of fluorophores (pKa)
Experimental: The dye of interest is first dissolved in a series of buffers that have each been calibrated using a pH meter. Acetate buffers are typically used in the range of pH 46, and phosphate buffers in the pH range 68. Absorption measurements are made using solutions that are approximately 10 1M in concentration, and fluorescence measurements are made using solutions that are approximately 1 μM in concentration. The absorption or emission data is then plotted versus pH to determine pKa values.

[4] = system: ATP-dependent dye efflux mechanisms in lymphoid-B cell lines; assay: Dye efflux from labeled cells with and without verapamil or probenecid, flow cytometry; format: cell-based
Experimental: Identical batches of lymphoid-B cell lines cells are separately incubated with […] solutions of 4,5,6,7-tetrafluorofluorescein diacetate (Compound 25), 2',7'-dichloro4,5,6,7-tetrafluorofluorescein diacetate (Compound 28), 2',4,5,6,7,7'-hexafluorofluorescein diacetate ([…]) and 2',4',5',7'-tetrafluorofluorescein diacetate. To one set of each cells is added 100 μM verapamil and to another 1 mM probenecid, both of which are known to block ATP-dependent dye efflux mechanisms, as found in multidrug resistant of cells. Without washing, the cells are analyzed for brightness by flow cytometry using 488-nm excitation.

[5] = system: rabbit polyclonal anti-fluorescein IgG (H+L) fraction; assay: Fluorescence quenching by anti-fluorescein antibody; format: binding; conditions: 5×10^-9 M dye
Experimental: Solutions of 5×10^-9 M fluorescein and 5×10^-9 M 2',7'-difluorofluorescein (Compound 29) are prepared in 100 mM potassium phosphate buffer, pH 8.0. The fluorescence of each solution is read with excitation at 490 nm. Sequential additions of 0.5 mg/mL rabbit polyclonal anti-fluorescein IgG (H+L) fraction (Molecular Probes, Inc.) are added and the fluorescence measurements are repeated.

[6] = approximate, from fluorescence emission versus pH (FIG. 3), in water
[7] = antibody volume 0 μL, pH 8.0, excitation 490 nm
[8] = antibody volume 2 μL of 0.5 mg/mL, pH 8.0
[9] = antibody volume 4 μL of 0.5 mg/mL, pH 8.0
[10] = antibody volume 6 μL of 0.5 mg/mL, pH 8.0
[11] = antibody volume 8 μL of 0.5 mg/mL, pH 8.0
[12] = antibody volume 10 μL of 0.5 mg/mL, pH 8.0
[13] = antibody volume 12 μL of 0.5 mg/mL, pH 8.0
[14] = antibody volume 15 μL of 0.5 mg/mL, pH 8.0
[15] = given in the synthesis examples

| Compound | photodecomposition [1] [%] | Abs. [2] [nm] | Em. [2] [nm] | ε × 10^-3 [2] [cm^-1 M^-1] | Quantum Yield [2] | pKa ([3]; Table 1) | further results |
| --- | --- | --- | --- | --- | --- | --- | --- |
| 5-(and-6)-carboxy-2',4',5',7'-tetrafluorofluorescein [Compound 40] | 6.0 | 510 | 533 | 81.3 | 0.59 | 3.7 | – |
| 5-(and-6)-carboxy-2',7'-difluorofluorescein | 9.0 | 492 | 516 | 85.9 | 0.92 | 4.8 | – |
| 5-(and-6)-carboxy-7'-fluororhodol | 4.0 | 494 | 519 | – | – | 5.2 | – |
| 5-(and-6)-carboxy-N,N-dimethyl-2'-fluororhodol | 5.0 | 519 | 553 | – | – | 4.2 | – |
| 5-(and-6)-carboxy-N,N-dimethyl-7'-fluororhodol | 5.0 | 520 | 546 | – | – | 5.3 | – |
| O=C1OC2(c3cc(Cl)c(O)cc3Oc3cc(O)c(Cl)cc32)c2ccccc21 [2',7'-dichlorofluorescein, reference compound] | – | – | – | – | – | 5.1 | pKa [3, 6]: ~ 5.1 |
| O=C(O)c1ccc(-c2c3cc(F)c(=O)cc-3oc3cc(O)c(F)cc23)c(S(=O)(=O)O)c1 [9-(4-carboxy-2-sulfo)-6-hydroxy-2,7-difluoro-3H-xanthene-3-one] | 7.3 | 497 | 517 | 83.8 | 0.92 | 4.3 | – |
| O=C1OC2(c3cc(F)c(O)cc3Oc3cc(O)c(F)cc32)c2c(F)c(F)c(F)c(F)c21 [Compound 26, 2',4,5,6,7,7'-hexafluorofluorescein] | 4.0 | 508 | 527 | 81.2 | 0.96 | 4.8 | – |
| CC(=O)Oc1cc2c(cc1Cl)C1(OC(=O)c3c(F)c(F)c(F)c(F)c31)c1cc(Cl)c(OC(C)=O)cc1O2 [Compound 28, 2',7'-dichloro4,5,6,7-tetrafluorofluorescein Diacetate] | – | – | – | – | – | – | Mean Fluorescence intensity of labeled cells ([4]; 100 μM verapamil): 110; Mean Fluorescence intensity of labeled cells ([4]; 1 mM Probenecid): 80.6; Mean Fluorescence intensity of labeled cells ([4]; No drug): 15.6 |
| O=C1OC2(c3cc(F)c(O)cc3Oc3cc(O)c(F)cc32)c2ccccc21 [Compound 29, 2',7'-difluorofluorescein] | 8.0 | 490 | 513 | 84.7 | 0.97 | 4.7 | pKa [3, 6]: ~ 4.7; Fluorescence Intensity [5, 7]: 100%; Fluorescence Intensity [5, 8]: 83.6%; Fluorescence Intensity [5, 9]: 67.3%; Fluorescence Intensity [5, 10]: 51.9%; Fluorescence Intensity [5, 11]: 36.5%; Fluorescence Intensity [5, 12]: 23.8%; Fluorescence Intensity [5, 13]: 13.4%; Fluorescence Intensity [5, 14]: 6.3% |
| O=C1OC2(c3cc(Cl)c(O)cc3Oc3cc(O)c(Cl)cc32)c2c(F)c(F)c(F)c(F)c21 [Compound 37, 2',7'-dichloro4,5,6,7-tetrafluorofluorescein] | 3.0 | 520 | 538 | 88.5 | 0.80 | 4.2 | – |
| O=c1c(F)c2oc3c(F)c(O)c(F)c(F)c3c(-c3c(F)c(F)c(F)c(F)c3F)c-2c(F)c1F [Compound 50, 1,2,4,5,7,8-hexafluoro-6-hydroxy-9-pentafluorophenylxanthen-3-one] | 4.0 | – | – | – | 0.11 | 2.8 | – |
| CN(C)c1ccc2c(c1)Oc1cc(O)c(F)cc1C21OC(=O)c2ccccc21 (stereo not shown) [Compound 51, 2'-fluoro-N,N-dimethylrhodol] | – | – | – | – | – | – | pKa [3, 15]: 4.2 |
| Nc1cc2c(cc1F)C1(OC(=O)c3ccccc31)c1ccc(O)cc1O2 (stereo not shown) [Compound 52, 7'-fluororhodol] | – | – | – | – | – | – | pKa [3, 15]: 5.2 |
| CN(C)c1cc2c(cc1F)C1(OC(=O)c3ccccc31)c1ccc(O)cc1O2 (stereo not shown) [Compound 53, N,N-dimethyl-7'-fluororhodol] | – | – | – | – | – | – | pKa [3, 15]: 5.3 |
| Nc1ccc2c(c1)Oc1cc(O)c(F)cc1C21OC(=O)c2ccccc21 (stereo not shown) [Compound 54, 2'-fluororhodol] | – | – | – | – | – | – | pKa [3, 15]: 3.8 |
| O=C(O)CSc1c(F)c(F)c2c(c1F)C1(OC2=O)c2ccc(O)cc2Oc2cc(O)ccc21 [Compound 58, 6-carboxymethylthio-4,5,7-trifluorofluorescein] | 5.0 | 507 | 526 | 63.5 | 0.88 | 4.5 | – |
| O=C1OC2(c3ccc(O)cc3Oc3cc(O)ccc32)c2ccccc21 [fluorescein, reference compound] | 17 | 490 | 514 | 82.2 | 0.92 | 6.5 | Fluorescence Intensity [5, 7]: 100%; Fluorescence Intensity [5, 8]: 84.6%; Fluorescence Intensity [5, 9]: 68.8%; Fluorescence Intensity [5, 10]: 54.3%; Fluorescence Intensity [5, 11]: 38.5%; Fluorescence Intensity [5, 12]: 22.9%; Fluorescence Intensity [5, 13]: 11.7%; Fluorescence Intensity [5, 14]: 4.4% |

More lines, main results first:

| photodecomposition [1] [%] | Abs. [2] [nm] | Em. [2] [nm] | ε × 10^-3 [2] [cm^-1 M^-1] | Quantum Yield [2] | Compound | pKa ([3]; Table 1) | further results |
| --- | --- | --- | --- | --- | --- | --- | --- |
| – | 504 | 530 | 80.3 | 0.75 | 5-(and-6)-carboxy-2',7'-dichlorofluorescein [reference compound] | – | – |
| 4.0 | 495 | 518 | – | – | 5-(and-6)-carboxy-2'-fluororhodol [Compound 55] | 3.8 | – |
| 11 | 510 | 534 | 84.2 | 0.43 | 5-(and-6)-carboxy-4',5'-difluorofluorescein [Compound 41] | 5.2 | – |
| – | 518 | 544 | – | 0.26 | 5-(and-6)-carboxy-N,N-dimethylrhodol [reference compound] | – | – |
| 4.0 | 494 | 521 | 69.6 | 0.89 | 5-(and-6)-carboxyrhodol [reference compound] | 5.6 | – |
| – | 507 | 526 | 87.5 | 0.86 | O=C(O)CSc1c(F)c(F)c2c(c1F)C1(OC2=O)c2cc(F)c(O)cc2Oc2cc(O)c(F)cc21 [Compound 59, 6-carboxymethylthio-2',4,5,7,7'-pentafluorofluorescein] | – | – |
| – | 503 | 522 | 77.5 | 0.053 | Nc1c(F)c(F)c2c(c1F)C1(OC2=O)c2ccc(O)cc2Oc2cc(O)ccc21 [Compound 68, 6-amino-4,5,7-trifluorofluorescein] | – | – |
| – | 507 | 527 | 79.9 | 0.92 | [N-]=[N+]=Nc1c(F)c(F)c2c(c1F)C1(OC2=O)c2ccc(O)cc2Oc2cc(O)ccc21 [Compound 78, 6-azido-4,5,7-trifluorofluorescein] | – | – |
